The text below walks through data of patent publication US20230024302A1, “2,3,5-TRISUBSTITUTED PYRAZOLO[1,5-A]PYRIMIDINE COMPOUNDS” (Arcus Biosciences, Inc., priority 2019, published 2023).

The target of assay [1] is T1, PI3Kγ (p120γ) (Homo sapiens, UniProt P48736).
T1 construct: purchased Promega V1761
In words: Inhibition of PI3K kinase activity (ADP Glo), PI3Kγ. To be noted: read-out: biochemical potency (PI3Kγ IC50). Summed up: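 IC50 values come from a 4-parameter nonlinear fit of ADP-Glo luminescence, which measures ADP produced as PIP2 is phosphorylated to PIP3. The p120γ enzyme (2× stock 8 nM) sat with compound 1 h at rt before substrate (2× stocks: 50 μM ATP, 0.1 mg/ml PIP2) was added. Phosphorylation then proceeded 60 min at rt.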
(In ADP-Glo the light output rises with the ADP produced.)

In assay [2] the target is T2, PI3Kγ (Homo sapiens, UniProt P48736).
T2 construct: host or cells: THP-1
As to the kind of experiment: PI3Kγ cellular assay in THP-1 cells (AKT pS473 AlphaLISA). Type of assay: cell-based. In a few lines:
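Endogenous AKT S473 phosphorylation, detected by AlphaLISA in lysates, serves as the PI3Kγ activity read-out in stimulated, serum-starved THP-1 cells (1.8×10^5/well).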

[3] abbreviates: Table 1, rhMCP-1 stimulated AKT pS473, read-out: cellular potency (PI3Kγ IC50).
Where [4] appears, read: Table 2, rhMCP-1 stimulated AKT pS473, read-out: cellular potency (PI3Kγ IC50).
The mark [5] stands for this setting: Table 3, rhMCP-1 stimulated AKT pS473, read-out: cellular potency (PI3Kγ IC50).

Read-outs that look alike come from different tables or passages of the source.

T1 sequence (P48736 whole entry): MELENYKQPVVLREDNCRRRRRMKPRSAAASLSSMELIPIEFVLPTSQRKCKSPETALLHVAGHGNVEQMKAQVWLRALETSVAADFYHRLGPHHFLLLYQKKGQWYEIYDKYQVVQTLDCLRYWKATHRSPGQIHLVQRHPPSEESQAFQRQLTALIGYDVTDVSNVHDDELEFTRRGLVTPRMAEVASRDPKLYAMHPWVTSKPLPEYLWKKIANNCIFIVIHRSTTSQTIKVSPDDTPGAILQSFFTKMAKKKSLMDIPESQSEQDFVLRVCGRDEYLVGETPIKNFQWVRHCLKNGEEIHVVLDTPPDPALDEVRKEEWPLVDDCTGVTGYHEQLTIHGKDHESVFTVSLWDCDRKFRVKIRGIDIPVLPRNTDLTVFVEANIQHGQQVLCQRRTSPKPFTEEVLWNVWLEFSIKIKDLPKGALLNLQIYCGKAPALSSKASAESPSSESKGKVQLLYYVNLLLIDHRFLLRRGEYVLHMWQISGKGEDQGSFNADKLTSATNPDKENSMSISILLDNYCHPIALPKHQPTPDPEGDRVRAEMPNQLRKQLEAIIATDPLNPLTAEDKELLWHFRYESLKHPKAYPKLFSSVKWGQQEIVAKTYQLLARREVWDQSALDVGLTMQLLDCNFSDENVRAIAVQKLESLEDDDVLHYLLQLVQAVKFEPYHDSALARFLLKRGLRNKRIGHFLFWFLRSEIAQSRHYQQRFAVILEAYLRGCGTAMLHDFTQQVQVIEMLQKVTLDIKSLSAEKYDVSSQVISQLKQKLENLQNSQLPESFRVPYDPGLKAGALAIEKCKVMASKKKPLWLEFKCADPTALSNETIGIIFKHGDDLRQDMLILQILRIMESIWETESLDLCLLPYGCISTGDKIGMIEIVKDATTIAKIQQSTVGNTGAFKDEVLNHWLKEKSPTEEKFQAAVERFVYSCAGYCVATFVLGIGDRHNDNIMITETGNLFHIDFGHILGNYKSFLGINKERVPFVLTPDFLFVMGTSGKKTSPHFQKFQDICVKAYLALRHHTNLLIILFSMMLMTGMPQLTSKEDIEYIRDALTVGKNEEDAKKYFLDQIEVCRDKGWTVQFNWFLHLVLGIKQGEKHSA
T2 sequence (P48736 whole entry): as above

`C[C@@H](C1CC1)N1Cc2cc(-c3ccn4nc(N)c(C(=O)N[C@@H]5CCC[C@H]5O)c4n3)cc(OC(F)(F)F)c2C1=O` [Example 35, 2-Amino-5-{2-[(1S)-1-cyclopropylethyl]-1-oxo-7-(trifluoromethoxy)-2,3-dihydro-1H-isoindol-5-yl}-N-[(1R,2R)-2-hydroxycyclopentyl]pyrazolo[1,5-a]pyrimidine-3-carboxamide]: the IC50 (commonly the concentration that inhibits the measured activity by half) in assay [1] (Table 1, p120γ) was below 100 nM; in assay [2] (setting [3]), below 100 nM.

Regarding `Cc1cc(-c2ccn3nc(N)c(C(=O)NC[C@H]4C[C@H](O)C4)c3n2)cc2c1C(=O)N([C@@H](C)C1CC1)C2` [Example 4], the IC50 in assay [1] (Table 1, p120γ) is below 100 nM; in assay [2] (setting [3]), below 100 nM.

In the case of `Cc1cc(-c2ccn3nc(N)c(C(=O)N[C@@H]4CCOC4)c3n2)cc2c1C(=O)N([C@@H](C)C1CC1)C2` [Example 176], the IC50 in assay [1] (Table 2, p120γ) was below 100 nM; in assay [2] (setting [4]) it was 100 to 1000 nM.

Turning to `Cc1cc(NC(=O)c2c(N)nn3ccc(-c4cc5c(c(NS(C)(=O)=O)c4)C(=O)N([C@@H](C)C4CC4)C5)nc23)ccn1` [Example 101, (S)-2-Amino-5-(2-(1-cyclopropylethyl)-7-(methylsulfonamido)-1-oxoisoindolin-5-yl)-N-(2-methylpyridin-4-yl)pyrazolo[1,5-a]pyrimidine-3-carboxamide], the IC50 is below 100 nM in assay [1] (Table 1, p120γ) and below 100 nM in assay [2] (setting [3]).

As to `Nc1nn2ccc(-c3cc4c(c(C(F)(F)F)c3)C(=O)N([C@@H](CO)C3CC3)C4)nc2c1C(=O)NC1CC1` [Example 340], the IC50 in assay [1] (Table 3, p120γ) was below 100 nM; in assay [2] (setting [5]), 100 to 1000 nM.

`Cc1c(NC(=O)c2c(N)nn3ccc(-c4cc5c(c(NS(C)(=O)=O)c4)C(=O)N([C@@H](C)C4CC4)C5)nc23)cnn1C` [Example 108, 2-Amino-5-{2-[(1S)-1-cyclopropylethyl]-7-methanesulfonamido-1-oxo-2,3-dihydro-1H-isoindol-5-yl}-N-(1,5-dimethyl-1H-pyrazol-4-yl)pyrazolo[1,5-a]pyrimidine-3-carboxamide]: the IC50 was below 100 nM in assay [1] (Table 1, p120γ) and below 100 nM in assay [2] (setting [3]).

With `C[C@@H](C1CC1)N1Cc2cc(-c3ccn4nc(N)c(C(=O)NC5CC5)c4n3)cc(C#N)c2C1=O` [Example 451], the IC50 was below 100 nM in assay [1] (Table 6, p120γ) and 100 to 1000 nM in assay [2] (Table 6, rhMCP-1 stimulated AKT pS473, read-out: cellular potency (PI3Kγ IC50)).

Consider `Cc1cc(-c2ccn3nc(N)c(C(=O)N4CC(O)C4)c3n2)cc2c1C(=O)N(C(C)C1CC1)C2` (stereo not drawn) [Example 251], for which the IC50 in assay [1] (Table 2, p120γ) is below 100 nM; in assay [2] (setting [4]) it was 100 to 1000 nM.

As for `C[C@@H](C1CC1)N1Cc2cc(-c3ccn4nc(N)c(C(=O)NC5CC5)c4n3)cc(S(C)(=O)=O)c2C1=O` [Example 132, 2-Amino-N-cyclopropyl-5-{2-[(1S)-1-cyclopropylethyl]-7-methanesulfonyl-1-oxo-2,3-dihydro-1H-isoindol-5-yl}pyrazolo[1,5-a]pyrimidine-3-carboxamide], the IC50 in assay [1] (Table 1, p120γ) is below 100 nM; in assay [2] (setting [3]) it was below 100 nM.

Consider `CCNS(=O)(=O)c1cc(-c2ccn3nc(N)c(C(=O)NC4CC4)c3n2)cc2c1C(=O)N([C@@H](C)C1CC1)C2` [Example 143, 2-Amino-N-cyclopropyl-5-{2-[(1S)-1-cyclopropylethyl]-7-(ethylsulfamoyl)-1-oxo-2,3-dihydro-1H-isoindol-5-yl}pyrazolo[1,5-a]pyrimidine-3-carboxamide], for which the IC50 in assay [1] (Table 1, p120γ) is below 100 nM; in assay [2] (setting [3]), below 100 nM.

For the molecule `Cc1cc(-c2ccn3nc(N)c(C(=O)NC[C@H]4CCOC4)c3n2)cc2c1C(=O)N([C@@H](C)C1CC1)C2` [Example 257], the IC50 in assay [1] (Table 2, p120γ) was below 100 nM; in assay [2] (setting [4]) it was 100 to 1000 nM.

Consider `Cc1cc(-c2ccn3nc(N)c(C(=O)Nc4cccc(C(=O)O)c4)c3n2)cc2c1C(=O)N([C@@H](C)C1CC1)C2` [Example 15, m-[(5-{2-[(S)-1-Cyclopropylethyl]-7-methyl-5-isoindolinoyl}-2-amino-1,4,7a-triaza-3-indenyl)carbonylamino]benzoic acid], for which the IC50 in assay [1] (Table 1, p120γ) was below 100 nM; in assay [2] (setting [3]) it was below 100 nM.

Consider `CCNC(=O)c1c(N)nn2ccc(-c3cc4c(c(C(F)(F)F)c3)C(=O)N([C@@H](C)C3CC3)C4)nc12` [Example 68, 2-[(S)-1-Cyclopropylethyl]-5-[2-amino-3-(ethylamino)carbonyl-1,4,7a-triaza-5-indenyl]-7-(trifluoromethyl)-1-isoindolinone], for which the IC50 in assay [1] (Table 1, p120γ) is below 100 nM; in assay [2] (setting [3]), below 100 nM.

As to `Cc1cc(-c2ccn3nc(N)c(C(=O)Nc4ccccc4)c3n2)cc2c1C(=O)N([C@@H](C)C1CC1)C2` [Example 298], the IC50 is below 100 nM in assay [1] (Table 2, p120γ) and above 1000 nM in assay [2] (setting [4]).

In the case of `C[C@@H](C1CC1)N1Cc2cc(-c3ccn4nc(N)c(C(=O)N[C@H]5CNC(=O)C5)c4n3)cc(OC(F)(F)F)c2C1=O` [Example 28, 2-Amino-5-{2-[(1S)-1-cyclopropylethyl]-1-oxo-7-(trifluoromethoxy)-2,3-dihydro-1H-isoindol-5-yl}-N-[(3R)-5-oxopyrrolidin-3-yl]pyrazolo[1,5-a]pyrimidine-3-carboxamide], the IC50 in assay [1] (Table 1, p120γ) was below 100 nM; in assay [2] (setting [3]), below 100 nM.

As for `Cc1cc(-c2ccn3nc(N)c(C(=O)N[C@@H](C)c4ccccc4F)c3n2)cc2c1C(=O)N(C(C)(C)CO)C2` [Example 313], the IC50 in assay [1] (Table 2, p120γ) was below 100 nM; in assay [2] (setting [4]), 100 to 1000 nM.

With `Cc1cc(-c2ccn3nc(N)c(C(=O)Nc4cnn(CC(C)(C)O)c4)c3n2)cc2c1C(=O)N([C@@H](C)C1CC1)C2` [Example 17, 2-Amino-5-{2-[(1S)-1-cyclopropylethyl]-7-methyl-1-oxo-2,3-dihydro-1H-isoindol-5-yl}-N-[1-(2-hydroxy-2-methylpropyl)-1H-pyrazol-4-yl]pyrazolo[1,5-a]pyrimidine-3-carboxamide], the IC50 in assay [1] (Table 1, p120γ) was below 100 nM; in assay [2] (setting [3]) it was below 100 nM.

As to `Cc1cc(-c2ccn3nc(N)c(C(=O)NC(C)CO)c3n2)cc2c1C(=O)N([C@H]1CCC[C@H](O)C1)C2` (stereo partly drawn) [Example 329], the IC50 in assay [1] (Table 2, p120γ) was below 100 nM; in assay [2] (setting [4]), above 1000 nM.

On to `CNC(=O)c1c(N)nn2ccc(-c3cc4c(c(C(F)(F)F)c3)C(=O)N([C@@H](C)C3CC3)C4)nc12` [Example 67, 2-[(S)-1-Cyclopropylethyl]-5-[2-amino-3-(methylamino)carbonyl-1,4,7a-triaza-5-indenyl]-7-(trifluoromethyl)-1-isoindolinone], for which the IC50 in assay [1] (Table 1, p120γ) was below 100 nM; in assay [2] (setting [3]), below 100 nM.

Take `C[C@@H](C1CC1)N1Cc2cc(-c3ccn4nc(N)c(C(=O)NC[C@@H](O)CO)c4n3)cc(C(F)(F)F)c2C1=O` [Example 344]: the IC50 in assay [1] (Table 3, p120γ) is below 100 nM; in assay [2] (setting [5]), 100 to 1000 nM.

Take `Cc1cc(-c2ccn3nc(N)c(C(=O)N[C@H](C(N)=O)c4ccccc4)c3n2)cc2c1C(=O)N([C@@H](C)C1CC1)C2` [Example 286]: the IC50 is 100 to 1000 nM in assay [1] (Table 2, p120γ) and above 1000 nM in assay [2] (setting [4]).

On to `Cc1cc(-c2ccn3nc(N)c(C(=O)N[C@@H]4c5ccccc5C[C@H]4O)c3n2)cc2c1C(=O)N([C@@H](C)C1CC1)C2` [Example 198], for which the IC50 in assay [1] (Table 2, p120γ) is below 100 nM; in assay [2] (setting [4]) it was 100 to 1000 nM.

Consider `Cc1cc(-c2ccn3nc(N)c(C(=O)N[C@@H](C)c4ccncc4)c3n2)cc2c1C(=O)N([C@@H](C)C1CC1)C2` [Example 173], for which the IC50 in assay [1] (Table 2, p120γ) was below 100 nM; in assay [2] (setting [4]) it was 100 to 1000 nM.

Take `Cc1cc(-c2ccn3nc(N)c(C(=O)NC(C)C(N)=O)c3n2)cc2c1C(=O)N([C@@H](C)C1CC1)C2` (stereo partly drawn) [Example 224]: the IC50 in assay [1] (Table 2, p120γ) is below 100 nM; in assay [2] (setting [4]), 100 to 1000 nM.
